Test results as given in ChEMBL document CHEMBL5053522, “Synthesis of 3-octadecanoxypropyl 6-deoxy-6-sulfo-α-d-glucopyranoside (ODSG) as a lipase-resistant SQAP derivative” (2021).

Tested on: A549
Assay: Cytotoxicity against human A549 cells assessed as survival rate upto 170 uM by CCK8 assay relative to control
Assay type: functional
Conditions: up to 170 µM

| Structure (SMILES) | Activity |
| --- | --- |
| CCCCCCCCCCCCCCCCCC(=O)OCCCO[C@H]1O[C@H](CS(=O)(=O)[O-])[C@@H](O)[C@H](O)[C@H]1O.[Na+] | 70% |
| CCCCCCCCCCCCCCCCCCOCCCO[C@H]1O[C@H](CS(=O)(=O)[O-])[C@@H](O)[C@H](O)[C@H]1O.[Na+] | >70% |
